Source: US4634712A, “Antihypertensive esters of 1,4-dihydro-2,6-dimethyl-3-(alkoxycarbonyl or alkoxyalkoxycarbonyl)-4-(substituted phenyl)-pyridine-5-carboxylic acid” (Recordati S.A., priority 1984, dated 1987)

How the values were obtained:
[1] = test system: male hypertensive rats (SHR, Wister-Kyoto strain); experiment: Antihypertensive activity in male hypertensive rats (SHR), systolic blood pressure by tail-cuff; type: in vivo; conditions: Rattus norvegicus, po, os, 0.5% methylcellulose, measured 1, 3, 5 and 7 hours after administration
Description: The antihypertensive activity of the esters according to the invention was evaluated in male hypertensive rats (SHR, Wister-Kyoto strain, 15-25 weeks old). The determination of blood pressure was performed by an indirect method (M. Gerald et al., Arzneim, Forsch., 18, 1825, 1968). The animals were prewarmed in a heating chamber at a temperature of from 35° to 37° C. for a period of 15 minutes before pressure determination. The compounds tested by oral route were dissolved or suspended in a 0.5% methylcellulose solution. Controls were given only the vehicle. Systolic blood pressure and heart rate were measured 1, 3, 5 and 7 hours after drug administration by means of a tail-cuff and a pulse transducer.

[2] = test system: methacholine induced coronary spasm; experiment: Coronary dilating activity in anesthetized normotensive rats, antagonism of methacholine induced coronary spasm; type: in vivo; conditions: Rattus norvegicus, iv infusion, water:dimethylformamide 9:1
Description: Coronary dilating activity was evaluated in anesthetized normotensive rats (weighing about 500 g), as the ability to antagonize methacholine induced coronary spasm. Rats were instrumented for methacholine infusion into the coronary ostium, while spastic activity was detected as ST segment elevation in D2 ECG recording (K. Sakai et al., J. Pharm. Meth., 5, 325, 1981). The compounds tested by i.v. infusion were dissolved in water:dimethylformamide (9:1 by volume). Activity was detected as normalization of ECG tracing after compounds administration during methacholine infusion.

[3] = LD50 in the mouse per os (method of C. S. Weil); conditions: in vivo, po
Description: The LD50 of the compounds according to the invention was determined in the mouse per os, according to the method described by C. S. Weil (Biometrics, 8, 249, 1952).

Row | Structure (SMILES) | ED25 [1] [mg/kg] | ED50 [2] [mg/kg] | LD50 [3] [mg/kg]
1 | COc1ccc(C(C#N)(CCCN(C)CC(C)OC(=O)C2=C(C)NC(C)=C(C(=O)OCC(C)C)C2c2cccc(Cl)c2Cl)C(C)C)cc1OC (centres unmarked) [Compound 2392, Isobutyl 2-[4-cyano-4-(3,4-dimethoxyphenyl)-5,N-dimethyl-hexylamino]-1-methylethyl 1,4-dihydro-2,6-dimethyl-4-(2,3-dichlorophenyl)-pyridine-3,5-dicarboxylate] | 14.9 |  | 
2 | CCCOCCOC(=O)C1=C(C)NC(C)=C(C(=O)OC(C)CN(C)CCCC(C#N)(c2ccc(OC)c(OC)c2)C(C)C)C1c1cccc(Cl)c1Cl (centres unmarked) [Compound 2404, 2-Propoxy-ethyl 2-[4-cyano-4-(3,4-dimethoxyphenyl)-5,N-dimethyl-hexylamino]-1-methylethyl 1,4-dihydro-2,6-dimethyl-4-(2,3-dichlorophenyl)-pyridine-3,5-dicarboxylate] | 17.8 |  | 
3 | COC(=O)C1=C(C)NC(C)=C(C(=O)OCCN(C)CCCC(C#N)(c2ccc(OC)c(OC)c2)C(C)C)C1c1cccc([N+](=O)[O-])c1 (centres unmarked) [Compound 2245, Methyl 2-[4-cyano-4-(3,4-dimethoxyphenyl)-5,N-dimethyl-hexylamino]-ethyl 1,4-dihydro-2,6-dimethyl-4-(3-nitrophenyl)-pyridine-3,5-dicarboxylate] | 6.8 | 0.301 | 278
